Laboratory results from ChEMBL document CHEMBL1137924, “Carbonic anhydrase inhibitors. Inhibition of the beta-class enzyme from the methanoarchaeon Methanobacterium thermoautotrophicum (Cab) with anions” (Bioorg Med Chem Lett, 2004).
Several values for one entry are separate records, joined by “and”; a condition that tells them apart may be missing. Equal entries are not always repeated.

Experiments:
Carbonic anhydrase [1] = target: T1, Carbonic anhydrase (Methanobacterium thermoautotrophicum, UniProt Q50565); set-up: species or system Methanothermobacter thermautotrophicus str. Delta H
T1 sequence (Q50565 whole entry): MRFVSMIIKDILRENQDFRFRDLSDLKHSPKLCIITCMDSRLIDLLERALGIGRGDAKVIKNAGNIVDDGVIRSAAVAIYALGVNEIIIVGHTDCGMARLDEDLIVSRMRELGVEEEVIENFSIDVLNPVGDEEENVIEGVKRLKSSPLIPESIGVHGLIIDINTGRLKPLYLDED

Carbonic anhydrase 1 = Carbonic anhydrase 1 (Homo sapiens, UniProt P00915)
Carbonic anhydrase [2] = target: T2, Carbonic anhydrase (Methanosarcina thermophila, UniProt P40881); assay type: functional
T2 sequence (P40881 whole entry): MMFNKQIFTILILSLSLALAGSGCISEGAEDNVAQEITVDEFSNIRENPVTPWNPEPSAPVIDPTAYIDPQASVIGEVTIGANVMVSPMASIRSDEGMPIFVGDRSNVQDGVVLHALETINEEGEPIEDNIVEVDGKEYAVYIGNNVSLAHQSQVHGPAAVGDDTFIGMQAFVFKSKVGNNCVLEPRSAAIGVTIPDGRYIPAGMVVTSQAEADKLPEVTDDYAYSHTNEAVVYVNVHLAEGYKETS
Description: Inhibitory constant against Zn-Cam (Methanosarcina thermophila)

Carbonic anhydrase 4 = Carbonic anhydrase 4 (Homo sapiens, UniProt P22748); assay: Inhibitory constant against carbonic anhydrase IV
Carbonic anhydrase [3] = target: T1, Carbonic anhydrase; assay: Inhibitory constant against methanoarchaeon Methanobacterium thermoautotrophicum (Cab); set-up: species or system Methanothermobacter thermautotrophicus str. Delta H
Carbonic anhydrase 2 = Carbonic anhydrase 2 (Homo sapiens, UniProt P00918)

Chain of Carbonic anhydrase 4 (P22748 whole entry): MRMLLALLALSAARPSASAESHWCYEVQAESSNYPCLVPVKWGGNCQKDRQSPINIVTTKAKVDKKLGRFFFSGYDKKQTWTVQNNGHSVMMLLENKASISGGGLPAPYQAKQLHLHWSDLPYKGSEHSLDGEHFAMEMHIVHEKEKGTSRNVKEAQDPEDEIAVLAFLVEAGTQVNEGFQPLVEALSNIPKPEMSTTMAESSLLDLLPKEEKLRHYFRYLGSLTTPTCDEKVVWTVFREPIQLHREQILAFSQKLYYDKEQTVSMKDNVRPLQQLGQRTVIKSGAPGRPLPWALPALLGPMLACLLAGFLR
Chain of Carbonic anhydrase 1 (P00915 whole entry): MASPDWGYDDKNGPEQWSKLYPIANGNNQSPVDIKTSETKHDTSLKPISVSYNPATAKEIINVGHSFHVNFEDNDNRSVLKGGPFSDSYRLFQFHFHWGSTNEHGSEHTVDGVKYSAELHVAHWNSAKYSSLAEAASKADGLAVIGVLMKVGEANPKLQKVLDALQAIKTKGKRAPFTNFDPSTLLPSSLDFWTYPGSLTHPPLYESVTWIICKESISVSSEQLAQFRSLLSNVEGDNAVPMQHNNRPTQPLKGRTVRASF

Row | Structure (SMILES) | Ki (Carbonic anhydrase [1]) | Ki (Carbonic anhydrase 1) [mM] | Ki (Carbonic anhydrase [2]) | Ki (Carbonic anhydrase 4) [mM] | Ki (Carbonic anhydrase [3]) [mM] | Ki (Carbonic anhydrase 2) [mM]
1 | NS(=O)(=O)O [SULFAMATE] | 44 mM | 0.02 | 9.6 mM | – | – | –
2 | Cl [HYDROCHLORIC ACID] | – | 6 | > 200 mM | 36 | 152 | –
3 | O=S(=O)(O)O [SULFURIC ACID] | – | – | – | 44 | – | –
4 | N#CS [THIOCYANIC ACID] | – | – | 7 mM | – | – | –
5 | I [IODIDE] | – | 0.3 | 160 mM | 11 | 13.2 | –
6 | O[B-](O)(O)c1ccccc1 [OXO(PHENYL)-BORANEDIOL] | 0.33 mM | 31.7 | 0.15 mM | – | – | 49.2
7 | S [HYDROGEN SULFIDE] | 0.7 mM | 0.0006 | 0.05 mM | – | – | –
8 | O=C(O)O [BICARBONATE] | 44.9 mM and 9.6 mM | – | 42 mM and 6.7 mM | 44 | – | –
9 | O=[N+]([O-])O [NITRIC ACID] | 7.8 mM | 7 | 36.5 mM | – | – | –
10 | NS(N)(=O)=O [SULFAMIDE] | – | – | 0.07 mM | – | – | –
11 | Br [BROMIDE] | – | 4 | 160 mM | 52 | 42.1 | –
12 | OB(O)c1ccccc1 [PHENYLBORONIC ACID] | 0.2 mM | 58.6 | 0.23 mM | – | – | –
13 | O=NO [NITROUS ACID] | 44.8 mM | – | 6.8 mM | – | – | –
